Data reported in patent US20150175655A1 (priority 2012, published 2015).
Read-outs that look alike come from different tables or passages of the source.

Legend:
[1] = test system: genotype 1b (Con1) wild-type transient HCV replicon in Huh-7-derived cells; assay: Transient-transfected HCV replicon EC50, genotype 1b wild type; assay type: cell-based; details: Hepatitis C virus; transient-transfected replicon genotype 1b wild type, 72 h; read-out: EC50 1B WT
[2] = test system: genotype 1a (H77) wild-type transient HCV replicon in Huh-7-derived cells; assay: Transient-transfected HCV replicon EC50, genotype 1a wild type; assay type: cell-based; details: Hepatitis C virus; transient-transfected replicon genotype 1a wild type, 72 h; read-out: EC50 1A WT
[3] = test system: genotype 1b transient HCV replicon, NS3/4a protease inhibitor resistant variant D168A, in Huh-7-derived cells; assay: Transient-transfected HCV replicon EC50, genotype 1b D168A; assay type: cell-based; details: Hepatitis C virus, 72 h, read-out: EC50 1B D168A
[4] = biological target: T1, NS3 genotype 1b protease (Hepatitis C virus genotype 1b, UniProt Q9WMX2, E1202G); assay: Ki determination, NS3 protease genotype 1b (fluorogenic depsipeptide substrate); assay type: biochemical
T1 construct: Purified NS3 protease domain (amino acids 1-181) of the genotype 1b and 3a virus were generated as above; K3 hexahistidine tag (N); rTEV protease cleavage site (N); made in house; host or cells: E. coli BL21AI, pET28 vector p28-N6H-Tev-NS3(181)1b
Excerpt: The coding sequence of the genotype 1b (con-1 strain) HCV NS3 protease domain was PCR amplified from a plasmid encoding the I389luc-ubi-neo/NS3-3′/ET replicon (Reblikon, Mainz, Germany). The 5′-PCR primer was designed to encode an N-terminal K3 hexahistidine tag and to insert an in-frame recombinant Tobacco Etch virus (rTEV) protease cleavage site into the NS3 coding sequence. The resulting DNA fragment was cloned into the pET28 protein expression vector (Invitrogen, Carlsbad, Calif.) yielding the p28-N6H-Tev-NS3(181)1b.
BL21AI bacteria (Invitrogen, Carlsbad, Calif.) were transformed with genotype 1b or 3 NS3 expression vectors and used to inoculate a 20 L fermentation vessel (Sartorius BBI System Inc., Bethlehem, Pa.), containing 18 L of fresh 2YT medium supplemented with 50 μg/mL kanamycin. When cell densities reached an OD600 of 1, the temperature of the cultures was reduced from 37° C. to 28° C. and induction was immediately initiated by the addition of 30 μM ZnSO4, 14 mM L-arabinose and 1 mM Isopropyl β-D-thiogalactoside (IPTG) final concentrations. Cells were harvested by centrifugation four hours post-induction and were stored as frozen pellets at −80° C. prior to NS3 protein purification.
Cell pellets were thawed and resuspended at 10 mL/g cells in lysis buffer containing 50 mM tris pH 7.6, 300 mM NaCl, 0.1% 3-[(3-cholamidopropyl)dimethylammonio]-1-propanesulfonate (CHAPS), 5% glycerol, and 2 mM β-mercaptoethanol. Cell suspensions were then sonicated, filtered through cheesecloth, and passed three times through a microfluidizer at 18,000 pounds/in^2. The resulting lysates were centrifuged at 15500 rpm for 45 minutes and supernatants were loaded onto a HisTrap HP column (GE Lifesciences) pre-equilibrated with five volumes of Ni buffer A (50 mM tris pH 7.6, 300 mM NaCl, 0.1% CHAPS, 5% glycerol, 2 mM β-mercaptoethanol, 50 mM imidazole-HCl). Proteins were eluted with a 0-100% gradient of Ni buffer A plus 500 mM imidazole-HCl and fractions were collected and pooled. The HisTrap pool was diluted 1:10 with SP-A buffer (50 mM tris pH 7.0, 10% glycerol, 2 mM dithiothreitol (DTT)) and loaded onto a HiTrap SP-HP column (GE Lifesciences) equilibrated with SP-A buffer. NS3 protease was eluted with a 0-100% SP-B buffer (SP-A buffer plus 1 M NaCl) gradient. Concentrated pools of NS3-containing SP fractions were aliquoted, snap frozen in liquid nitrogen and stored at −80° C.
Purified NS3 protease domain (amino acids 1-181) of the genotype 1b and 3a virus were generated as above.
Reactions were run at room temperature in buffer consisting of 50 mM HEPES, 40% glycerol, 0.05% Triton X-100, 10 mM DTT, and 10% DMSO. The final assay solutions contained 50 pM NS3 genotype 1b protease or 200 pM genotype 3a protease, 20 μM NS4A peptide, and 4 μM substrate (genotype 1 b) or 2 μM substrate (genotype 3a). Inhibitor concentrations varied from 100 nM to 5 pM in 3-fold dilutions, and no-inhibitor controls were included.
Compound dilutions were made in DMSO at 20× final concentration. Reaction mixtures were prepared in 96-well assay plates. A solution of enzyme and NS4A peptide in assay buffer (25 μL volume with both reagents at 4× final concentration) was mixed with 45 μL assay buffer and 5 μL of either inhibitor or DMSO, and pre-incubated at room temperature for 1 hour. The reaction was started by addition of 25 μL substrate solution at 4× final concentration. Plates were mixed vigorously for 5-10 seconds and reactions were allowed to proceed for 90 minutes. fluorescence was measured every 30 s between 90 and 120 minutes reaction time using a Tecan InfiniTe M1000 or PerkinElmer Envision multimode plate reader with an excitation wavelength of 340 nm and an emission wavelength of 490 nm.
To determine the K, rates were plotted as a function of inhibitor concentration, and the data were fit with equation 1 (Morrison, J. F., Biochimica et Biophysica Acta 1969, 185, 269-286) to calculate Ki^app using GraphPad Prism 5.

[5] = test system: genotype 1a transient HCV replicon, NS3/4a protease inhibitor resistant variant R155K, in Huh-7-derived cells; assay: Transient-transfected HCV replicon EC50, genotype 1a R155K; assay type: cell-based; details: Hepatitis C virus, 72 h, read-out: EC50 1A R155K
[6] = rcm bond, Zhan 1B, DCE
[7] = biological target: T2, NS3 genotype 3a protease (UniProt Q81258); assay: Ki determination, NS3 protease genotype 3a (fluorogenic depsipeptide substrate); assay type: biochemical, hepatitis C virus; details: 200 pM enzyme, 20 μM NS4A peptide, 2 μM substrate, read-out: Ki 3A
T2 construct: Purified NS3 protease domain (amino acids 1-181) of the genotype 1b and 3a virus were generated as above; fused on or other part: N-terminal hexahistidine tag and rTEV protease cleavage site (vector p28-N6H-Tev-NS3(181)3)
T2 sequence (Q81258 1033-1663): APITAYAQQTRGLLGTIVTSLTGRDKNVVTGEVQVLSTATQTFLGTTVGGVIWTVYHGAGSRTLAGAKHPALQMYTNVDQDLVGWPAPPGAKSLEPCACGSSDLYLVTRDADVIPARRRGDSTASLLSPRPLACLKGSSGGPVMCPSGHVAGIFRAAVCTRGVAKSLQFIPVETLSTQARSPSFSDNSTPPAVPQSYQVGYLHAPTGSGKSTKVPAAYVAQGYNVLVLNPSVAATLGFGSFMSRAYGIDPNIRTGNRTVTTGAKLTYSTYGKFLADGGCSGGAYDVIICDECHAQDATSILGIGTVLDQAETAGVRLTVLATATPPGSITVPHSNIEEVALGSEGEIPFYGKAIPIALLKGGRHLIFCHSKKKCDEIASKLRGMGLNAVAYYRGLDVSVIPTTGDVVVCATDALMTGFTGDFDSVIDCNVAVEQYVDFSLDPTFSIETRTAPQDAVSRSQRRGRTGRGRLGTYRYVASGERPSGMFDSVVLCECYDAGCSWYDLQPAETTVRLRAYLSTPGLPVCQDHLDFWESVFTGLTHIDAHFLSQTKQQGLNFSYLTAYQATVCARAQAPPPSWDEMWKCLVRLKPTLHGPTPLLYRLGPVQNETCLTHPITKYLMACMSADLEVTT
How it was run: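 Refolded His-tagged NS3 protease domain (aa 1-181, genotype 3a) at 200 pM with 20 μM NS4A peptide was pre-incubated 1 h at RT with inhibitor (100 nM–5 pM, 3-fold), then 2 μM FRET depsipeptide substrate was added in HEPES/40% glycerol/10% DMSO buffer. Steady-state rates over 90-120 min (ex 340/em 490 nm) versus inhibitor concentration gave Ki.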

SMILES: COc1ccc2nc3c(nc2c1)O[C@H]1CN(C(=O)[C@H](C(C)(C)C)NC(=O)O[C@@H]2C[C@H]2CCCCC3)[C@H](C(=O)N[C@]2(C(=O)NS(=O)(=O)C3(C)CC3)C[C@H]2C(F)F)[C@@H]1C [Example 18, (1aR,5S,8S,9S,10R,22aR)-5-tert-butyl-N-[(1R,2R)-2-(difluoromethyl)-1-{[(1-methylcyclopropyl)sulfonyl]carbamoyl}cyclopropyl]-14-methoxy-9-methyl-3,6-dioxo-1,1a,3,4,5,6,9,10,18,19,20,21,22,22a-tetradecahydro-8H-7,10-methanocyclopropa[18,19][1,10,3,6]dioxadiazacyclononadecino[11,12-b]quinoxaline-8-carboxamide]
- EC50 [1]: 1.2 nM
- EC50 [2]: 2.3 nM
- EC50 [3]: 24 nM

SMILES: CC[C@@H]1[C@@H]2CN(C(=O)[C@H](C3CCCCC3)NC(=O)O[C@@H]3C[C@H]3CCCCCc3nc4ccc(OC)cc4nc3O2)[C@@H]1C(=O)N[C@]1(C(=O)NS(=O)(=O)C2(C)CC2)C[C@H]1C(F)F [Example 16, (1aR,5S,8S,9S,10R,22aR)-5-cyclohexyl-N-[(1R,2R)-2-(difluoromethyl)-1-{[(1-methylcyclopropyl)sulfonyl]carbamoyl}cyclopropyl]-9-ethyl-14-methoxy-3,6-dioxo-1,1a,3,4,5,6,9,10,18,19,20,21,22,22a-tetradecahydro-8H-7,10-methanocyclopropa[18,19][1,10,3,6]dioxadiazacyclononadecino[11,12-b]quinoxaline-8-carboxamide]
- Ki [4]: 0.09 nM
- EC50 [5]: 22 nM
- EC50 [1]: 5.8 nM
- EC50 [2]: 9.4 nM
- EC50 [3]: 61 nM

SMILES: CCC[C@@H]1[C@@H]2CN(C(=O)[C@H](C(C)(C)C)NC(=O)O[C@@H]3C[C@H]3CCCC=Cc3nc4ccc(OC)cc4nc3O2)[C@@H]1C(=O)OC(C)(C)C
- ring closure, yield of all isomers ([6]; from C=CCCC[C@@H]1C[C@H]1OC(=O)N[C@H](C(=O)N1C[C@H](Oc2nc3cc(OC)ccc3nc2C=C)[C@@H](CCC)[C@H]1C(=O)OC(C)(C)C)C(C)(C)C, 5.0 mM, 100.0 °C, 1.0 h): 80.7%

SMILES: COc1ccc2nc3c(nc2c1)O[C@H]1CN(C(=O)[C@H](C2(C)CCCC2)NC(=O)O[C@@H]2C[C@H]2CCCC=C3)[C@H](C(=O)OC(C)(C)C)[C@@H]1C
- ring closure, yield of all isomers ([6]; from C=CCCC[C@@H]1C[C@H]1OC(=O)N[C@H](C(=O)N1C[C@H](Oc2nc3cc(OC)ccc3nc2C=C)[C@@H](C)[C@H]1C(=O)OC(C)(C)C)C1(C)CCCC1, 5.03 mM, 83.0 °C, […]): 78%

SMILES: COc1ccc2nc3c(nc2c1)O[C@H]1CN(C(=O)[C@H](C(C)(C)C)NC(=O)O[C@@H]2CCC[C@H]2CCCC=C3)[C@H](C(=O)OC(C)(C)C)[C@@H]1C
- ring closure, yield of all isomers ([6]; from C=CCCC[C@@H]1CCC[C@H]1OC(=O)N[C@H](C(=O)N1C[C@H](Oc2nc3cc(OC)ccc3nc2C=C)[C@@H](C)[C@H]1C(=O)OC(C)(C)C)C(C)(C)C, 4.97 mM, 83.0 °C, […]): 78.5%

SMILES: CC[C@@H]1[C@@H]2CN(C(=O)[C@H](C(C)(C)C)NC(=O)O[C@@H]3[C@H]4CC[C@H](C4)[C@H]3CCCC=Cc3nc4ccc(OC)cc4nc3O2)[C@@H]1C(=O)OC(C)(C)C
- ring closure, yield of all isomers ([6]; from C=CCCCC1C2CCC(C2)C1OC(=O)N[C@H](C(=O)N1C[C@H](Oc2nc3cc(OC)ccc3nc2C=C)[C@@H](CC)[C@H]1C(=O)OC(C)(C)C)C(C)(C)C, 4.0 mM, 100.0 °C, 0.75 h): 45.2%

SMILES: CC[C@]12C[C@@H]1CCCCCc1nc3ccc(OC)cc3nc1O[C@H]1CN(C(=O)[C@H](C(C)(C)C)NC(=O)O2)[C@H](C(=O)N[C@]2(C(=O)NS(=O)(=O)C3(C)CC3)C[C@H]2C(F)F)[C@@H]1C [Example 42, (1aS,5S,8S,9S,10R,22aS)-5-tert-butyl-N-[(1R,2R)-2-(difluoromethyl)-1-{[(1-methylcyclopropyl)sulfonyl]carbamoyl}cyclopropyl]-1a-ethyl-14-methoxy-9-methyl-3,6-dioxo-1,1a,3,4,5,6,9,10,18,19,20,21,22,22a-tetradecahydro-8H-7,10-methanocyclopropa[18,19][1,10,3,6]dioxadiazacyclononadecino[11,12-b]quinoxaline-8-carboxamide]
- Ki [4]: 0.1 nM

SMILES: CC[C@@H]1[C@@H]2CN(C(=O)[C@H](C(C)(C)C)NC(=O)O[C@@H]3C[C@H]3CC/C=C/C(F)(F)c3nc4ccc(C#N)cc4nc3O2)[C@@H]1C(=O)N[C@]1(C(=O)NS(=O)(=O)C2(C)CC2)C[C@H]1C(F)F [Example 84, (1aR,5S,8S,9S,10R,19E,22aR)-5-tert-butyl-14-cyano-N-[(1R,2R)-2-(difluoromethyl)-1-{[(1-methylcyclopropyl)sulfonyl]carbamoyl}cyclopropyl]-9-ethyl-18,18-difluoro-3,6-dioxo-1,1a,3,4,5,6,9,10,18,21,22,22a-dodecahydro-8H-7,10-methanocyclopropa[18,19][1,10,3,6]dioxadiazacyclononadecino[11,12-b]quinoxaline-8-carboxamide]
- Ki [7]: 0.08 nM
- Ki [4]: 0.04 nM
